Data published in publication PMC11418212, “Characterization of four structurally diverse inhibitors of SUR2-containing KATP channels” (Channels, 2024).
Entries after “also recorded” stand apart in the source; their conditions may differ.

Columns and labels:
Assay type in all cases: cell-based
Kir4.1 = target: T1, Kir4.1 (Homo sapiens, UniProt P78508); assay: Kir family selectivity thallium flux assay
T1 construct: expressed in transfected cells
T1 sequence (P78508 1-379): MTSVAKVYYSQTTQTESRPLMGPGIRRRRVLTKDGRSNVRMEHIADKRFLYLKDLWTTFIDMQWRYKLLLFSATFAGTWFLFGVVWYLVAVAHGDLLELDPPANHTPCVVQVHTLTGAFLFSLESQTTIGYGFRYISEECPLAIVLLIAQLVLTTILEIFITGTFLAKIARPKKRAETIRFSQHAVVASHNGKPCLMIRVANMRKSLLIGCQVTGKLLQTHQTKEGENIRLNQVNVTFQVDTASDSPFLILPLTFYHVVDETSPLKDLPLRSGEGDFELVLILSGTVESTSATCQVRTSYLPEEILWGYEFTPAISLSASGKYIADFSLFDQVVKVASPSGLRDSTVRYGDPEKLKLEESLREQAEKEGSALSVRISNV
Procedure: (§1) Thallium flux assays were conducted using the established methods. Stably transfected T-REx-HEK-293 cells expressing Kir6.2/SUR1 or Kir6.1/SUR2B were cultured overnight in polyamine-coated plates (black-walled, clear-bottomed; BD, Bedford, MA) at a density of 20,000 cells in 20 µl per well of cell culture media. The expression of Kir6.2/SUR1 or Kir6.1/SUR2B channels was induced by treating cells with 1 µg/ml tetracycline overnight. The following day, cells were rinsed with an assay buffer (Hanks’ Balanced Salt Solution supplied with 20 mM HEPES), loaded with the thallium-sensor dye Brilliant Thallos-AM AM (Ion Bioscience, San Marcos, TX) for 1 h, and then washed again with assay buffer to remove unincorporated dye. The cell plate was subsequently placed in a Panoptic Kinetic Imaging Plate Reader (Wavefront Bioscience, Franklin, TN) and imaged at a frequency of 1 Hz using 482/35 nm (excitation) and 536/40 nm (emission) filter sets. Kir6.1/SUR2B channels were activated with 10 µM pinacidil, whereas Kir6.1/SUR1 was activated with 30 µM VU0071063 [34]. To activate KATP channels independent of activators with ATP-depletion method, cells were treated with a cocktail of metabolic inhibitors (2.5 mM sodium cyanide and 20 mM 2-deoxy glucose) for 25 min before imagine. Control and test compounds diluted freshly from DMSO stocks into assay buffer were added to wells for four minutes before adding 0.5 mM chloride-free thallium stimulus buffer (Ion Bioscience) to initiate thallium flux through the expressed KATP channels. Thallium flux was recorded from all 384-wells for 2 min before terminating the experiment. […] Selectivity assays against other Kir channels were performed as described previously.
To begin elucidating the binding site location of VU0212387, VU0543336, VU0605768, and VU0544086, we evaluated the activity of the inhibitors against KATP channels composed of different Kir and SUR subunit combinations expressed in HEK293 cells. Specifically, the compounds were tested against Kir6.1/SUR1, Kir6.2/SUR1, Kir6.1/SUR2A, Kir6.2/SUR2A, Kir6.1/SUR2B, and Kir6.2/SUR2B at a dose of 3 µM. […] We expanded the selectivity analysis to include 10 other members of the Kir channel family.

Kir6.1/SUR2B [1] = target: T2, Kir6.1/SUR2B (Homo sapiens, UniProt O60706); assay: Whole-cell patch clamp electrophysiology, T-Rex-HEK293-Kir6.1/SUR2B cells; conditions: 10 µM compound in continued presence of pinacidil (1 μM in Figure 2)
T2 construct: expressed in transfected cells; Kir6.1 tetracycline-inducible, SUR2B constitutive
T2 sequence (O60706 1-1549 isoform O60706-2, species assumed): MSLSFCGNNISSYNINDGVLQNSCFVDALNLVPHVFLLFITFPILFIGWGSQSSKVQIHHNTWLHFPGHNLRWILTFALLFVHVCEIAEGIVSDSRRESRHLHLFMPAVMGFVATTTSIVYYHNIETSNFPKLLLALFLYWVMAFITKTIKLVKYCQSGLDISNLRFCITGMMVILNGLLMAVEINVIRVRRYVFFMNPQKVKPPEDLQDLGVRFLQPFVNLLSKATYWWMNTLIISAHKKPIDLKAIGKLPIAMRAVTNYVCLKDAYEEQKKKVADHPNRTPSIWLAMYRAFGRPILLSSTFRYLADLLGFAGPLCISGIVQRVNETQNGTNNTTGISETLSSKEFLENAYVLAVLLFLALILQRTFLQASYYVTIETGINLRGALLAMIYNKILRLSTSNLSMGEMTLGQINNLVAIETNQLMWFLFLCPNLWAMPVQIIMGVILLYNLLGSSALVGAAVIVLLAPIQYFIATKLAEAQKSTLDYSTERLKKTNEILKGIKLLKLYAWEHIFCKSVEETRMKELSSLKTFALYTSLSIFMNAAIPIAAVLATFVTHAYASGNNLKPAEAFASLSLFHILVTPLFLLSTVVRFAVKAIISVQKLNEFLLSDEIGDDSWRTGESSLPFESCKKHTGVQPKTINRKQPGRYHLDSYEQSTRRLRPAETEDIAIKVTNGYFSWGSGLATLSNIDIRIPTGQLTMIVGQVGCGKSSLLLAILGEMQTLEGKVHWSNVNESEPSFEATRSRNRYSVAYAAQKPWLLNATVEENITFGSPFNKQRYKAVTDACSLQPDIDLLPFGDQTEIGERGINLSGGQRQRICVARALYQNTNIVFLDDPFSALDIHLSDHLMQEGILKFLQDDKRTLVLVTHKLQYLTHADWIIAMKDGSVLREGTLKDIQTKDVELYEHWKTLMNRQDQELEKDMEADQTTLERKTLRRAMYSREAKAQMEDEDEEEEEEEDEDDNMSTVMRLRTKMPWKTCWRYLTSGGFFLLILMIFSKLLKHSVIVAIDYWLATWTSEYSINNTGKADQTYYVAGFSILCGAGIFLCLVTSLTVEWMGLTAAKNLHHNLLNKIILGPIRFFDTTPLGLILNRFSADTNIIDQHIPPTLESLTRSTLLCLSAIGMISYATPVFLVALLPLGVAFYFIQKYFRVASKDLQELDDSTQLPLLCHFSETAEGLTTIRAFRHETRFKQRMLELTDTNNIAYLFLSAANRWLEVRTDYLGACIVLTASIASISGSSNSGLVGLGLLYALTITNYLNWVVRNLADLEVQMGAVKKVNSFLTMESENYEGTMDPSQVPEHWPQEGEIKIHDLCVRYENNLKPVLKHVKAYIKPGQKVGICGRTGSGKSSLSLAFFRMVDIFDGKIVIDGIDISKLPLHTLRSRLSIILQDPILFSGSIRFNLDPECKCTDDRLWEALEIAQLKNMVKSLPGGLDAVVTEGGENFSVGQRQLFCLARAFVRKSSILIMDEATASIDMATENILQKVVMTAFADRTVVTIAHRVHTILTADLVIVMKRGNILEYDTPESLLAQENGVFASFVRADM
T2 sequence (Q15842 whole entry partner, species assumed): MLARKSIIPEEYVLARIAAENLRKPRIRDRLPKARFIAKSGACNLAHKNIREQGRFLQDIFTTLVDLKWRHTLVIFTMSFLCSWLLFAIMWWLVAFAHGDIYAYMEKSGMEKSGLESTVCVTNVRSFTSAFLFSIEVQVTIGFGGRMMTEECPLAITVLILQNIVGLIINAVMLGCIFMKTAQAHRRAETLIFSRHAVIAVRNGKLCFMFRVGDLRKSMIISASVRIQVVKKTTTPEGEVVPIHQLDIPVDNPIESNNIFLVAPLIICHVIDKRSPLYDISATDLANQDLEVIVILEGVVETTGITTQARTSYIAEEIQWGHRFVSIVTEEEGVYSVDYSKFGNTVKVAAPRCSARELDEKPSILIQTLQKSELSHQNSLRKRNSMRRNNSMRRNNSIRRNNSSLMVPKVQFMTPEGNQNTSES
Procedure: Whole-cell patch clamp electrophysiology experiments were conducted as described previously. Briefly, stably transfected T-Rex-HEK293 cells expressing Kir6.1/SUR2B were seeded at a density of 250,000 cells per 35-mm dish coated with tissue culture-treated polystyrene and incubated at 37°C in a 5% CO2 atmosphere. Whole-cell patch-clamp experiments were initiated 48 h post-seeding. On the day of the experiment, cells were dissociated and seeded onto poly-L-lysine-coated glass coverslips, where they were allowed to recover for at least one hour in a 37°C/5% CO2 incubator prior to the recordings. Patch pipettes with resistances of 2 to 3 MΩ were employed, containing an internal solution composed of 130 mM KCl, 2 mM MgCl2, 1 mM EGTA, 20 mM HEPES-free acid, and 1 mM Na2ADP, adjusted to pH 7.3 with KOH and an osmolarity of 275 mOsmol/kg with sucrose. The extracellular solution consisted of 135 mM NaCl, 5 mM KCl, 2 mM CaCl2, 1 mM MgCl2, 5 mM glucose, and 10 mM HEPES-free acid adjusted to pH 7.4 with NaOH. Test compounds were initially diluted in DMSO before being further diluted into the bath solution, maintaining a final DMSO concentration of less than 0.1% v/v. Recordings of macroscopic currents were conducted in a voltage-clamp setup using an Axopatch 200B Amplifier (Molecular Devices, Sunnyvale, CA), with data sampled at 5 kHz and low-pass filtered at 1 kHz. A ramp protocol was used to generate current–voltage curve relationships. The voltage protocol involved holding the cells at −75 mV, followed by a 200-msec step to −120 mV, a linear ramp to 120 mV over 240 msec at a rate of […], maintaining at 120 mV for 15 msec, and finally stepping back to −120 mV for 100 msec, with this sequence repeated every 5 seconds. […] All data acquisition and analyses were performed using pClamp software version 9.2 (Molecular Devices).
Gold-standard voltage-clamp electrophysiology was used to confirm the inhibitory effects of VU0212387, VU0543336, VU0605768, and VU0544086 on Kir6.1/SUR2B channel activity (Figure 2a–d).
Figure 2. Confirmation of VU0212387, VU0543336, VU0605768, or VU0544086-dependent inhibition of Kir6.1/SUR2B with patch clamp electrophysiology. […] VU compounds tested were (a) VU0212387, (b) VU0543336, (c) VU0605768, or (d) VU0544086. Data mean ± SD current density (n = 3).

Kir6.2/SUR1 = Kir6.2/SUR1 (Homo sapiens, UniProt Q09428); assay: Thallium flux activation dose-response without channel pre-activation; conditions: no channel pre-activation; doses up to 30 µM
Kir6.2/SUR1, sequence (Q09428 whole entry, species assumed): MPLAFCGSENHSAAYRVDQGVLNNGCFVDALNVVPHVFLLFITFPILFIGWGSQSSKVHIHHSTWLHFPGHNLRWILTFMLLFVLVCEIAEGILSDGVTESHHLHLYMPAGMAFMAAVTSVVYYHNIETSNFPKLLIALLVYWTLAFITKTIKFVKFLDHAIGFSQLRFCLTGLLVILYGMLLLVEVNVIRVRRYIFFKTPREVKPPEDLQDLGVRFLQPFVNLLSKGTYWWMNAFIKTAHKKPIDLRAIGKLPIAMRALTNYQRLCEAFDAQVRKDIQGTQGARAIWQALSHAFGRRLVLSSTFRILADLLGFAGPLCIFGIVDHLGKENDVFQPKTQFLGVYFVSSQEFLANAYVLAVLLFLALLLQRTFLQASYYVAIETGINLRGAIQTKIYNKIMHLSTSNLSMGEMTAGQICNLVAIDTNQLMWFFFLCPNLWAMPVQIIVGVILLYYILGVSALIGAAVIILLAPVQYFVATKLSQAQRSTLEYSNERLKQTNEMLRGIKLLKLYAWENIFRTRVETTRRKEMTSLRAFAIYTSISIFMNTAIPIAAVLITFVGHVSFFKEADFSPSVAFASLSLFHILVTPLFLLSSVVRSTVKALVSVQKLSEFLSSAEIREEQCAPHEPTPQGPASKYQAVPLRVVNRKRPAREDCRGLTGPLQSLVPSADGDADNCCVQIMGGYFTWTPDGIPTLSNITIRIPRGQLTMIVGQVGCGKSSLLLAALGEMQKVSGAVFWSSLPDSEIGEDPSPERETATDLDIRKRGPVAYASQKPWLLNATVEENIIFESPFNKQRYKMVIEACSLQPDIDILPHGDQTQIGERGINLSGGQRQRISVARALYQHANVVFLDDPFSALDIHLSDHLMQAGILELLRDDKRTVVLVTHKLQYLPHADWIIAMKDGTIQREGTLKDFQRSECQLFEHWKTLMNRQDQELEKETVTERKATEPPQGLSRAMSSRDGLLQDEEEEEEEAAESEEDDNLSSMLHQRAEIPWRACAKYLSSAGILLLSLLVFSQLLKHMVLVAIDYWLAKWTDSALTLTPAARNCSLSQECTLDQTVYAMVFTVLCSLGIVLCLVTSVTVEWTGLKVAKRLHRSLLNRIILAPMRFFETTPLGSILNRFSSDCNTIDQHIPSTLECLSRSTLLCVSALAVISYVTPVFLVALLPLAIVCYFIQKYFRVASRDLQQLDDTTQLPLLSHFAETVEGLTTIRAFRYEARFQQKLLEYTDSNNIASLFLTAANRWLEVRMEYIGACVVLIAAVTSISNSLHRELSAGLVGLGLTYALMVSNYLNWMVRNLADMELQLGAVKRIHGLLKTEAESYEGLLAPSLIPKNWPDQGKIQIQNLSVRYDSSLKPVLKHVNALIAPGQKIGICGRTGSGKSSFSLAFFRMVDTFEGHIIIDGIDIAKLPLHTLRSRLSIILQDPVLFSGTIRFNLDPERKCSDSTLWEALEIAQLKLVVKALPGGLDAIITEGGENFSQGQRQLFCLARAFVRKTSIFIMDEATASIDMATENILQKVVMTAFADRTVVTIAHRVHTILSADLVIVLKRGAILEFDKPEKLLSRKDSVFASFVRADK
Kir6.2/SUR1, sequence (Q14654 whole entry partner, species assumed): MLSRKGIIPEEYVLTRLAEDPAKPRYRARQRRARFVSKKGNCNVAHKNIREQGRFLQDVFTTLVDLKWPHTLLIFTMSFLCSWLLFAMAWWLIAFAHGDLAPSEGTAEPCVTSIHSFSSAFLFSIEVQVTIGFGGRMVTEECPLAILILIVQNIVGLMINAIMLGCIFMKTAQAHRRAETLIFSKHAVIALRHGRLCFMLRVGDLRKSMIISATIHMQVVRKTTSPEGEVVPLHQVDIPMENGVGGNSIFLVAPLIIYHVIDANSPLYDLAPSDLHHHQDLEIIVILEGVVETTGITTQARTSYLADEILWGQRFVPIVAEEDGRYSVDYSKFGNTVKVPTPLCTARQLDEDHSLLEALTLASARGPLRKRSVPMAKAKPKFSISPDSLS
Procedure: as §1
(§2) We therefore systematically explored this possibility in dose–response experiments against Kir6.2/SUR1 in the absence of channel pre-activation. Kir6.1/SUR2B was also evaluated for comparison.
(§3) Figure 6. Paradoxical activation of Kir6.2/SUR1. […] Fluorescence intensity at each dose was normalized to that in the absence of drug. […] (b) Activities of indicated compounds at 30 μM toward Kir6.1/SUR2B normalized to that of 30 μM pinacidil. […] (d) Activities of indicated compounds at 30 μM toward Kir6.2/SUR1 normalized to that of 30 μM VU0071063.

Kir6.1/SUR2B [2] = target: T2, Kir6.1/SUR2B; assay: as above; conditions: no channel pre-activation; doses up to 30 µM
Procedure: as §1, §2, §3

Q: With `c1ccc2[nH]c(CSc3ncnc4c3oc3ccccc34)nc2c1` [VU0212387, 4-(((1 H-benzo[d]imidazol-2-yl)methyl)thio)benzofuro[3,2-d]pyrimidine] as the compound, how does the IC50 (Kir4.1) read?
A: > 30 µM

Q: And the “Inhibition of Kir6.1/SUR2B whole-cell current” value (“Inhibition” below) (Kir6.1/SUR2B [1])?
A: complete KATP channel inhibition

Q: What about the “Activation of Kir6.2/SUR1” value (Kir6.2/SUR1) of the same compound?
A: dose-dependently activated; also recorded: induced dose-dependent Kir6.2/SUR1 activation; also recorded: activate Kir6.2/SUR1 at higher drug doses

Q: And the “Activation of Kir6.1/SUR2B” value (Kir6.1/SUR2B [2])?
A: failed to activate

Q: With `O=C(NCC(O)(c1ccccc1)C(F)(F)F)c1ccc(OC(F)(F)F)cc1` (stereo not shown) [VU0543336, N-(3,3,3-trifluoro-2-hydroxy-2-phenylpropyl)-4-(trifluoromethoxy)benzamide] as the compound, how does the IC50 (Kir4.1) read?
A: > 30 µM

Q: And the “Inhibition” value (Kir6.1/SUR2B [1])?
A: complete KATP channel inhibition

Q: What about the “Activation of Kir6.2/SUR1” value (Kir6.2/SUR1) of the same compound?
A: dose-dependently activated; also recorded: induced dose-dependent Kir6.2/SUR1 activation; also recorded: activate Kir6.2/SUR1 at higher drug doses

Q: What about the “Activation of Kir6.1/SUR2B” value (Kir6.1/SUR2B [2]) of the same compound?
A: failed to activate

Q: Which results are given for `O=C(NCc1cc(-c2ccncc2)n(C2CCCC2)n1)Nc1cccs1` [VU0544086, 1-((1-cyclopentyl-5-(pyridin-4-yl)-1 H-pyrazol-3-yl)methyl)-3-(thiophen-2-yl)urea]?
A: IC50 (Kir4.1): > 30 µM; Inhibition of Kir6.1/SUR2B whole-cell current (Kir6.1/SUR2B [1]): complete KATP channel inhibition; Activation of Kir6.2/SUR1 (Kir6.2/SUR1): failed to activate; Activation of Kir6.1/SUR2B (Kir6.1/SUR2B [2]): failed to activate

Q: Which IC50 (Kir4.1) does the source give for `O=C1c2oc3ccccc3c(=O)c2C(c2cccc(Br)c2)N1CCO` (stereo not shown) [VU0605768, 1-(3-bromophenyl)-2-(2-hydroxyethyl)-1,2-dihydrochromeno[2,3-c]pyrrole-3,9-dione] here?
A: > 30 µM

Q: What about the “Inhibition” value (Kir6.1/SUR2B [1]) of the same compound?
A: complete KATP channel inhibition

Q: What about the “Activation of Kir6.2/SUR1” value (Kir6.2/SUR1) of the same compound?
A: dose-dependently activated; also recorded: induced dose-dependent Kir6.2/SUR1 activation; also recorded: activate Kir6.2/SUR1 at higher drug doses

Q: What about the “Activation of Kir6.1/SUR2B” value (Kir6.1/SUR2B [2]) of the same compound?
A: failed to activate
